Measurements as given in patent US6649753B2, “Stable salts of S-adenosyl-L-methionine (SAMe) and the process for their preparation” (Orchid Chemicals & Pharmaceuticals Ltd., priority 2001, dated 2003).

Experiment: Accelerated stability of SAMe salts (ICH guidelines, HPLC)
Assay type: physicochemical
Conditions: 40-45° C. with 70-75% Relative Humidity
Method: Assessment of stability of the above SAMe salts has been done as per the ICH guidelines at 40-45° C. with 70-75% Relative Humidity and an improved HPLC method has been employed which resolves all the impurities formed on degrading SAMe (Table I). This method of HPLC analysis is the best method known so far to study stability of SAMe and has been validated as per the ICH guidelines. The details of the HPLC method followed and the accelerated stability report are as under:
Column=YMC-ODS-A, 4.6 mm×25 cm, C-18, 5 micron
Buffer=A mixture of 0.02 M citric acid & 0.01 M sodium dihydrogen orthophosphate
Mobile phase=using acetonitrile water with citric acid buffer
Detector=UV at 254 nm wavelength
Flow rate=1.5 ml per min.
Column temperature=25° C.
The percentage of SAMe after storage at the specified temperature was determined using the content of SAMe after storage and the content of SAMe before storage, i.e., initial content of SAMe in the corresponding salt using the following equation: [formula]

With “SAMe disulfate catechol-3,5-disulfonate or its sodium salt [Salt II]” the “SAMe Residual Ratio” value (accelerated storage period 30 days) was 97.5%, the “SAMe Residual Ratio” value (accelerated storage period 60 days) was 95.2% and the “SAMe Residual Ratio” value (accelerated storage period 90 days) was 94.5%.
